Data published in ChEMBL document CHEMBL4041536, “Design, synthesis and biological activity of novel molecules designed to target PARP and DNA” (Bioorg Med Chem Lett, 2017).
Active and inactive are the calls of the source. The calls are words filed in the database; no cut-off is given here.

Legend:
[1] = Inhibition of PARP (unknown origin); parameters: species or system Homo sapiens
[2] = species on record: Cricetulus griseus; experiment: Inhibition of PARP in chinese hamster VC8 cells harboring BRCA2 mutant assessed as growth inhibition; assay type: cell-based
[3] = Inhibition of PARP in Wistar rat pancreatic islet nuclear fraction using histone H1 as substrate in presence of [14C]NAD after 10 mins by scintillation counting method
[4] = species on record: Cricetulus griseus; experiment: Selectivity ratio of PARP inhibition in chinese hamster VC8 cells harboring wild type BRCA2 to PARP inhibition in chinese hamster VC8 cells harboring BRCA2 mutant; assay type: cell-based
[5] = Drug uptake in nucleus of chinese hamster VC8 cells harboring BRCA2 mutant at 25 uM by DAPI staining based fluorescence microscopic method; assay type: ADME, Cricetulus griseus
[6] = Drug uptake in nucleus of chinese hamster VC8 cells harboring wild type BRCA2 at 25 uM by DAPI staining based fluorescence microscopic method; assay type: ADME, Cricetulus griseus
[7] = species on record: Cricetulus griseus; experiment: Induction of DNA damage in chinese hamster VC8 cells harboring BRCA2 mutant by comet assay; assay type: cell-based
[8] = (§1) Inhibition of PARP in chinese hamster VC8 cells harboring BRCA2 mutant; assay type: cell-based, Cricetulus griseus
[9] = species on record: Cricetulus griseus; experiment: as §1; assay type: cell-based

Cc1nc2ccccc2c(=O)[nH]1
IC50 [1]: 5 to 120 µM

Nc1cccc2c(=O)[nH]ccc12
inhibition [2]: inactive

NC(=O)c1cccc(N)c1 [3-AMINOBENZAMIDE]
IC50 [3]: 5 to 120 µM

CN(CO)/N=N/c1ccc2c3c(cccc13)C(=O)NC2=O
inhibition [2]: inactive
Selectivity ratio [4]: 2 to 7

O=C1NC(=O)c2ccc([N+]3=NN(CCCl)CC3)c3cccc1c23.[Cl-]
Drug uptake [5]: Not Active
Drug uptake [6]: Not Active
Selectivity ratio [4]: 25
Activity [7]: Active
IC50 [8]: 1 to 1.7 µM
inhibition [9]: Dose-dependent effect

O=c1[nH]ccc2c([N+]3=NN(CCCl)CC3)cccc12
IC50 [8]: 23.9 µM

CN/N=N/c1ccc2c3c(cccc13)C(=O)NC2=O
inhibition [2]: inactive
Selectivity ratio [4]: 2 to 7

CN(C)/N=N/c1cccc2c(=O)[nH]ccc12
inhibition [2]: inactive
Selectivity ratio [4]: 2 to 7

O=C1NC(=O)c2ccc(/N=N/N(CCCl)CCCl)c3cccc1c23
inhibition [2]: inactive

CN(C)/N=N/c1ccc2c3c(cccc13)C(=O)NC2=O
inhibition [2]: inactive
Selectivity ratio [4]: 2 to 7

CN(CO)/N=N/c1cccc2c(=O)[nH]ccc12
inhibition [2]: inactive
Selectivity ratio [4]: 2 to 7

Nc1ccc2c3c(cccc13)C(=O)NC2=O
Selectivity ratio [4]: 77
IC50 [8]: 2.59 µM

CN/N=N/c1cccc2c(=O)[nH]ccc12
inhibition [2]: inactive
Selectivity ratio [4]: 2 to 7

ClCCN1CC[N+](c2ccc3ncnc(Nc4cccc(Cl)c4)c3c2)=N1
Activity [7]: Active
IC50 [8]: 15.2 µM
